Values of other authors as cited in patent publication US7423042B2, “Compounds” (Glaxo Group Limited, priority 2005, dated 2008).

How the values were obtained:
[1] = system: synthesis of pro-inflammatory proteins including IL-6, IL-8, GM-CSF, RANTES and COX-2; conditions: a number of different cell types
[2] = system: TGF-β-induced increases in fibronectin and thrombospondin; conditions: Laping et al., 2002

Structure (SMILES) | decreasing the synthesis of pro-inflammatory proteins (IL-6, IL-8, GM-CSF, RANTES, COX-2) [1] | inhibition of TGF-β-induced increases in fibronectin and thrombospondin [2]
Fc1ccc(-c2nc3n(c2-c2ccncc2)CCS3)cc1 [SK&F 86002] | effective | 
C[S+]([O-])c1ccc(-c2nc(-c3ccncc3)c(-c3ccc(F)cc3)[nH]2)cc1 (stereo not drawn) [SB-203580] | effective | 
COc1nccc(-c2c(-c3ccc(F)cc3)ncn2C2CCNCC2)n1 [SB-242235] |  | inhibited
